# According to patent US8821861B2, “Fibrin sealant” (The Board of Trustees of the University of Illinois, priority 2007, dated 2014):
# “Also recorded” adds a separate entry of the source.
# Assays:
# [1] = molecular target: T1, fibrin clots formed from purified human fibrinogen and human α thrombin (Homo sapiens, UniProt P02671+P02675+P02679); test: Fibrin clot turbidity (A405), purified fibrinogen clotted with thrombin in microplates; assay type: biochemical; conditions: for polyP concentration exerting maximal effect on turbidity: 2.6 mg/mL citrate-free fibrinogen, 1 nM thrombin (FIG. 8)
# T1 construct: purchased Enzyme Research Laboratories (South Bend, Ind.)
# T1 sequence (P02671 20-644 isoform P02671-2 limits assumed): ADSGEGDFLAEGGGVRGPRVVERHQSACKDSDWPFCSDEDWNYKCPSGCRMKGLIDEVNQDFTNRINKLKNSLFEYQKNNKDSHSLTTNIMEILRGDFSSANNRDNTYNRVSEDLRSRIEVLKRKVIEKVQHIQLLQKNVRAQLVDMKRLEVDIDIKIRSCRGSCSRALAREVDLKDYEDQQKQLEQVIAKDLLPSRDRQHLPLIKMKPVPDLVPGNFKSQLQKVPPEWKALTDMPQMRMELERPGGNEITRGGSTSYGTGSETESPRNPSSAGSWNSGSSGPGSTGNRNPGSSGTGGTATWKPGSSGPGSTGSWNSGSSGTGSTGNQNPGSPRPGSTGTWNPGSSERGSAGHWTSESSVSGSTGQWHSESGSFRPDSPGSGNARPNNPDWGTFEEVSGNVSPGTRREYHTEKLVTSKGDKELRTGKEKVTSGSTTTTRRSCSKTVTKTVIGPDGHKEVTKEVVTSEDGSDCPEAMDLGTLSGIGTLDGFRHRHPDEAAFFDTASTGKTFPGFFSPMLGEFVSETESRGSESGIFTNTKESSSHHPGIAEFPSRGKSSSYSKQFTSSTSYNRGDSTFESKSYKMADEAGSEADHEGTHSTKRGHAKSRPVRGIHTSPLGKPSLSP
# T1 sequence (P02675 31-491): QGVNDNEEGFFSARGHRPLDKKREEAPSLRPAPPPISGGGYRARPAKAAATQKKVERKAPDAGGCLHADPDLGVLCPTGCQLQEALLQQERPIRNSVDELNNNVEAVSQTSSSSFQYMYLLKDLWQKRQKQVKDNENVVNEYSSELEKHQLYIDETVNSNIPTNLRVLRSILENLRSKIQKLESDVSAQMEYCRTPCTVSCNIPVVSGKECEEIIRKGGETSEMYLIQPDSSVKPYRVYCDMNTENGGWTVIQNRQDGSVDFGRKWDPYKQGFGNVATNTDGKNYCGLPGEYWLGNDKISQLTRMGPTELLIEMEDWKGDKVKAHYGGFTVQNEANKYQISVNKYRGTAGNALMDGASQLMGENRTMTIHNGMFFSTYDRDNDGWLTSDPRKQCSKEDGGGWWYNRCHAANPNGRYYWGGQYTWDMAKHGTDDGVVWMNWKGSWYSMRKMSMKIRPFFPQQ
# T1 sequence (P02679 27-437 isoform P02679-2 limits assumed): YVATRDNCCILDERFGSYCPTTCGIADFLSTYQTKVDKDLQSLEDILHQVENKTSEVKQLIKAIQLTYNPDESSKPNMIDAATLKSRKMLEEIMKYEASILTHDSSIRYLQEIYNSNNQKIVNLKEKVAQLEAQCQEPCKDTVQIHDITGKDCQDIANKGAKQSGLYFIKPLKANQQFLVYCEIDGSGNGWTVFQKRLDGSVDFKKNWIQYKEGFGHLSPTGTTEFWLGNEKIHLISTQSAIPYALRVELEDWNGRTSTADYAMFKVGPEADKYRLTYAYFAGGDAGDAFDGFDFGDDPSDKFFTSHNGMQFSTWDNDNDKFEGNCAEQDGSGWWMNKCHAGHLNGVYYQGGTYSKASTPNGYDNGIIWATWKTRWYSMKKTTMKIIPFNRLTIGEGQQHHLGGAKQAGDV
# Procedure: The in vitro studies reported here utilize a microplate-based method to evaluate the formation of fibrin clots, which are prepared by mixing together purified fibrinogen and thrombin. Once fibrinogen is cleaved to fibrin, the fibrin monomers spontaneously polymerize to yield a three-dimensional gel, or clot. These fibrin polymers scatter visible light, resulting in increased turbidity which can monitored spectrophotometrically to detect clotting.
# Fibrin clots were formed in 96-well polystyrene microplates (Corning Inc., Corning, N.Y.) by first preincubating fibrinogen with polyP in TBS plus the indicated CaCl2 concentrations. (Preincubations of fibrinogen with calcium ions were for 15 minutes unless otherwise stated.) Thrombin in TBS plus the same concentration of CaCl2 was then added to trigger clot formation. Reactant concentrations were typically 2.6 mg/mL fibrinogen, 62.5 pM to 8 nM thrombin, 0 to 8 mM polyP, and 0 to 5 mM CaCl2 in a total volume of 200 μL. In some studies, 0 to 10 U/mL unfractionated heparin or 1 mM iodoacetamide were also included. Clotting was evaluated by monitoring the change in turbidity (A405) for varying times (typically, 1 hour) at room temperature using a Spectramax microplate reader (Molecular Devices Corporation, Sunnyvale, Calif.). […] Final turbidities (A405) of fibrin clots were typically quantified after the clots had matured for 60 minutes.
# [2] = molecular target: T2, fibrin clots / human plasmin (Homo sapiens, UniProt P02671+P02675+P02679); test: Fibrinolysis of fibrin clots by plasmin; assay type: biochemical; conditions: 1 mM polyP, 1 mg/mL fibrinogen, 2.5 mM CaCl2, 8 nM plasmin, 1 nM thrombin; clots without polyP lysed quickly
# T2 construct: purchased Enzyme Research Laboratories (South Bend, Ind.)
# T2 sequence (P02671 20-644 isoform P02671-2 limits assumed): T1 sequence (P02671 20-644 isoform P02671-2 limits assumed)
# T2 sequence (P02675 31-491): T1 sequence (P02675 31-491)
# T2 sequence (P02679 27-437 isoform P02679-2 limits assumed): T1 sequence (P02679 27-437 isoform P02679-2 limits assumed)
# Procedure: FIG. 6 is a graph of the time course of fibrinolysis of fibrin clots. Fibrinogen (1 mg/mL) was preincubated for 15 minutes in the presence of 2.5 mM CaCl2 with 1 mM polyP (▾) or without polyP (O), after which 8 nM plasmin was added followed immediately by 1 nM thrombin. Fibrin clots were allowed to form for 30 minutes, after which their turbidities were measured. The data are plotted as A405 values normalized to the initial A405 value for each curve.
# In these experiments, clots were formed by mixing purified human fibrinogen, human plasmin, and human thrombin in the presence of calcium ions, with or without polyP. Clot lysis was quantified by measuring the decrease in optical density over time (following a 30 minute initial clot formation). […] (FIG. 6)
# [3] = test system: spleen surface wounds; test: Porcine splenic trauma model of surgical bleeding; assay type: in vivo, pig
# Procedure: In preliminary experiments, the ability of polyP to enhance the performance of a fibrin sealant composed of purified fibrinogen and thrombin was evaluated. The fibrinogen component of the experimental fibrin sealant was pre-mixed with calcium ions and polyP, while control fibrinogen preparations were pre-mixed with calcium ions without polyP. Shallow surface wounds were then made on the surface of the spleen of anesthetized pigs, after which 0.3 mL each of the fibrinogen and thrombin solutions were applied to the wound surface and allowed to react with each other. Including polyP in the fibrinogen solution shortened the time to cessation of bleeding in this model: 9.8±1.0 minutes with polyP, but 12.3±1.0 minutes without polyP (mean±SEM). Adding polyP to the fibrinogen solution also changed the appearance of fibrin clots formed on the wound surfaces.
# Young adult pigs weighing 20-35 kg were anesthetized using intramuscular teletamine/zolazepam/glycopyrolate, followed by intubation and maintenance with inhaled isoflurane. A ventral midline laparotomy was performed and the spleen was externalized. Shallow (approximately 1 mm deep) oval surface wounds measuring approximately 3×5 mm were made using a Metzenbaum scissors. […] Time to cessation of bleeding was assessed visually. […]
# [4] = molecular target: T3, fibrin fibrils (Homo sapiens, UniProt P02671+P02675+P02679); test: Fibril size determination (relative mass-length ratio from wavelength scan); assay type: biochemical; conditions: 1 mM polyP; 2.6 mg/mL fibrinogen, 3 nM thrombin, 2.5 mM calcium ions
# T3 construct: purchased Enzyme Research Laboratories (South Bend, Ind.)
# T3 sequence (P02671 20-644 isoform P02671-2 limits assumed): T1 sequence (P02671 20-644 isoform P02671-2 limits assumed)
# T3 sequence (P02675 31-491): T1 sequence (P02675 31-491)
# T3 sequence (P02679 27-437 isoform P02679-2 limits assumed): T1 sequence (P02679 27-437 isoform P02679-2 limits assumed)
# Excerpt: Previous studies of fibrin clot structure have shown that the final optical density of fibrin clots is primarily a function of the thickness of the fibrils formed. It is possible to estimate the mass-length ratios of fibrin fibrils by measuring the optical density of clots at a series of wavelengths of light, using a suitable mathematical analysis of the data. Such analyses of fibrin clots were made by mixing fibrinogen and thrombin in the presence of calcium ions and varying concentrations of polyP, in order to determine the effect of polyP on the mass-length ratio of the fibrils (FIG. 5(A)). […] When fibrin clots formed in the presence of calcium ions and varying polyP concentrations were visualized using scanning electron microscopy, the fibrin fibrils had increased thickness as the polyP concentration increased (FIGS. 5(C-E)).
# Relative fibril mass to length ratios were determined using a modification of the method of Carr and Gabriel for clots with high turbidity. Briefly, fibrin clots were allowed to mature for 2 hours after thrombin addition, after which the absorbance was scanned from 400 to 800 nm on a Spectramax microplate reader. A plot of 1/τ*λ^3(y axis) versus 1/λ^2 (x axis) was used to determine the y intercept, the inverse of which is proportional to the mass-length ratio of the fibers. […]
# [5] = molecular target: T4, fibrin cross-linking by factor XIIIa (Homo sapiens, UniProt P02671+P02675+P02679); test: Fibrin cross-link formation (SDS-PAGE); assay type: biochemical; conditions: 37° C., data not shown
# T4 construct: changing the rate or extent of fibrin cross-linking by factor XIIIa; purchased Enzyme Research Laboratories (South Bend, Ind.)
# T4 sequence (P02671 20-644 isoform P02671-2 limits assumed): T1 sequence (P02671 20-644 isoform P02671-2 limits assumed)
# T4 sequence (P02675 31-491): T1 sequence (P02675 31-491)
# T4 sequence (P02679 27-437 isoform P02679-2 limits assumed): T1 sequence (P02679 27-437 isoform P02679-2 limits assumed)
# Procedure: Rates of a and y cross-link formation were studied in clotting reactions carried out as described for turbidity measurements using purified fibrinogen, except that fibrin clots were formed in polypropylene tubes at 37° C. and reactions were stopped at various times by adding an equal volume of 2×SDS sample buffer (100 mM Tris-HCl, 1 mM dithiothreitol, 4% sodium dodecyl sulfate (SDS), 0.02% bromophenol blue, 20% glycerol, pH 6.8) with immediate boiling at 95° C. for 5 minutes. Samples (10 μL) were then subjected to SDS-PAGE using 7.5% polyacrylamide gels and stained with Gelcode (Pierce, Rockford, Ill.) according to the manufacturer's directions.
# [6] = test system: human plasma; conditions: previous studies [20]; cited from earlier work
# [7] = molecular target: T3, fibrin fibrils; test: Scanning electron microscopy of fibrin clots (fibril thickness); assay type: biochemical; conditions: 2.6 mg/mL fibrinogen, 2.5 mM CaCl2, 3 nM thrombin, without polyP 26.5±0.7 nm
# Procedure: Fibrin clots formed as described above for turbidity measurements were allowed to mature for 2 hours after thrombin addition. Clots were washed 4 times in 0.1 M cacodylate, fixed in Karnovsky's gluteraldehyde solution overnight, and then processed by stepwise ethanol gradient, critical point drying, and sputter coating with gold palladium. Clots were observed and photographed in six different representative areas using a scanning electron microscope.
# [8] = molecular target: T1, fibrin clots formed from purified human fibrinogen and human α thrombin; test: Fibrin clot turbidity (A405), purified fibrinogen clotted with thrombin in microplates; assay type: biochemical; conditions: up to 20 U/mL unfractionated heparin, 500 μM polyP
molecule,measurement,setting,value
"NC(=O)CI [iodoacetamide, reference compound]",effect of iodoacetamide on the enhancement of final clot turbidity by polyP,"[1]; transglutaminase inhibitor added to clotting mixtures, data not shown",failed to antagonize the enhancement of final clot turbidity by polyP
Polyphosphate,polyP concentration exerting maximal effect on turbidity,[1]; 2 mM Ca2+,1 mM
same,polyP concentration exerting maximal effect on turbidity,[1]; 2.5 mM Ca2+,1 to 2 mM
same,polyP concentration exerting maximal effect on turbidity,[1]; 3 mM Ca2+,2 to 4 mM
same,polyP concentration exerting maximal effect on turbidity,[1]; 5 mM Ca2+,3 to 8 mM
same,polyP concentration giving optimal enhancement of final clot turbidity,"[1]; expressed as phosphate monomer, 2.6 mg/mL fibrinogen, 8 nM thrombin, 2.5 mM calcium chloride (FIG. 3)",approximately 1 mM
same,effect on turbidity of fibrin clots,[1]; in the absence of Ca2+,did not increase the turbidity of fibrin clots
same,effect on final clot turbidity,"[1]; mM Ca2+ present, regardless of the amount of thrombin added",markedly increased final clot turbidity
same,effect on fibrin clot turbidity with added factor XIIIa,"[1]; preactivated factor XIIIa added to the clotting mixtures, data not shown",still increased fibrin clot turbidity
same,effect on thrombin clotting time,[1]; purified fibrinogen plus thrombin,lack of effect
same,enhancement of final clot turbidity with factor XIIIa inhibitor,"[1]; with or without 1 mM iodoacetamide, data not shown",approximately equally well in the presence or absence of iodoacetamide
same,resistance of clots to fibrinolysis,[2],highly resistant to lysis by plasmin
same,time to cessation of bleeding (mean±SEM),"[3]; fibrin sealant, polyP in the fibrinogen solution, 0.3 mL each of fibrinogen and thrombin solutions on spleen wound, without polyP 12.3±1.0 minutes",9.8 ± 1.0 min
same,appearance of fibrin seals formed on the wound surfaces,[3]; fibrinogen with polyP versus without polyP (FIG. 7),more opaque
same,mass-length ratio of fibrin fibrils compared to clots formed in the absence of polyP,[4],more than three times larger
same,rate of formation of cross-linked fibrin chains,[5],appeared to be the same with or without polyP; also recorded: failed to identify any impact of polyP
same,effect on clotting time of human plasma,[6],shortens the clotting time of human plasma
same,effect on clotting time when thrombin was added to plasma,[6],did not shorten clotting times
same,mean fibril thickness (±standard error),[7]; 100 μM polyP,33.6±1.0 nm
same,mean fibril thickness (±standard error),[7]; 500 μM polyP,54.2±1.3 nm
same,mean fibril thickness (±standard error),[7]; 1 mM polyP,73.4±1.5 nm
heparin [reference compound],magnitude of the turbidity increase relative to polyP,"[1]; heparin 0 to 10 units/mL, data not shown",markedly lower than that observed with polyP
same,effect on fibrin turbidity,"[1]; heparin examined from 0 to 10 units/mL, data not shown",increased fibrin turbidity in a dose-dependent fashion
same,effect of added heparin on the polyP effect on turbidity,[8],did not reduce the effect of polyP on turbidity
